# Patent US20240309043A1, “THERAPEUTICALLY ACTIVE STEROIDAL DERIVATIVES” (Organon R&D Finland Ltd., priority 2017, published 2024)
# Key:
# Format in all cases: biochemical
# [1] = system: HSD1 enzyme that is expressed in rabbit placenta tissue; assay: Inhibition of E1 to E2 conversion in rabbit placenta tissue homogenate; conditions: for Rabbit placenta inhibition % @100 nM: inhibitor 100 nM, 30 nM estrone, 30 min
# [2] = target: T1, recombinant human 17β-HSD2 (Homo sapiens, UniProt P37059); assay: Inhibition of recombinant human 17β-HSD2; conditions: inhibitor 1 μM; 50 nM estradiol, 1 mM NADH, 30 min RT
# T1 construct: made in house; host or cells: Sd9 (Sf9) insect cells, baculovirus (Bac to Bac Expression System)
# T1 sequence (P37059 1-387): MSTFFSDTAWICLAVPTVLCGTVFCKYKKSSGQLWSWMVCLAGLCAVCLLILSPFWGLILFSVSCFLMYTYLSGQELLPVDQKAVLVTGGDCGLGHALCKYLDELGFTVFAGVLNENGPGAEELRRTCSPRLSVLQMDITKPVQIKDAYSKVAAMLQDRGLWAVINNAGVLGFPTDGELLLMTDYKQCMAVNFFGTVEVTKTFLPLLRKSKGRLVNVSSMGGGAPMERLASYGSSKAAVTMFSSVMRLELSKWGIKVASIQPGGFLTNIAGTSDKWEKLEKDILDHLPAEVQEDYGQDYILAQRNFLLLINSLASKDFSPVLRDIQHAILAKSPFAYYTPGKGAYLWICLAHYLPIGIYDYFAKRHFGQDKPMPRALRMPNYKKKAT
# Procedure, shortened: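 Sf9 baculovirus-expressed enzyme membrane extract (4 μg/ml) incubated 30 min at RT in 20 mM KH2PO4 pH 8.5 with 50 nM estradiol (³H-tracer) and 1 mM NADH, inhibitor at 1 μM or 0.1 μM, 1% DMSO. TCA-stopped; estradiol-to-estrone conversion by radio-HPLC, % inhibition = 100 − % conversion.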
# [3] = target: T2, recombinant human 17β-HSD1 (Homo sapiens, UniProt P14061); assay: Inhibition of recombinant human 17β-HSD1; conditions: inhibitor 100 nM; 30 nM estrone, 1 mM NADPH, 30 min RT
# T2 construct: made in house; host or cells: Sd9 (Sf9) insect cells, baculovirus (Bac to Bac Expression System)
# T2 sequence (P14061 1-328): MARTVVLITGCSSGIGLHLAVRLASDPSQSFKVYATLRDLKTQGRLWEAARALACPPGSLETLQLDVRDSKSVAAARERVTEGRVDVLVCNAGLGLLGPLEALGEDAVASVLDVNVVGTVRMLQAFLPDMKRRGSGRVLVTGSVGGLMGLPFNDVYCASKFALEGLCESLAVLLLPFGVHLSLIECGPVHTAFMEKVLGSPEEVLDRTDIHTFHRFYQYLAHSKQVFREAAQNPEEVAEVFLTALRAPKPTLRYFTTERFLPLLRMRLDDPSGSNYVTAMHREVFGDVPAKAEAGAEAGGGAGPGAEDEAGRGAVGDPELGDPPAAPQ
# Procedure, shortened: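 Microsomes from Sf9 cells expressing human 17β-HSD1 (1 μg/ml) were incubated for 30 min at RT in 20 mM KH2PO4 pH 7.4 with 30 nM ³H-estrone, 1 mM NADPH and inhibitor at 1 μM or 0.1 μM (1% DMSO). Estrone-to-estradiol conversion was measured by radio-HPLC after TCA stop, and % inhibition was taken as 100 − % conversion.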
SMILES,Rabbit placenta inhibition % @100 nM [1] [%],inhibition at 1 µM [2] [%],inhibition at 0.1 µM [3] [%],Rabbit placenta inhibition % @1000 nM ([1]; inhibitor 1000 nM) [% @],HSD2 inhibition % @1 μM [2] [%],HSD1 inhibition % @100 nM [3] [%]
"Cc1ccnc(NC(=O)CC[C@@H]2C/C(=N\O)[C@@]3(C)CCC4c5cccc(F)c5CCC4C23)c1 (stereo partly drawn) [Compound 130, 3-((13S,15R,E)-4-fluoro-17-(hydroxyimino)-13-methyl-7,8,9,11,12,13,14,15,16,17-decahydro-6H-cyclopenta[a]phenanthren-15-yl)-N-(4-methylpyridin-2-yl)propanamide]",40,14,92,,,
"COc1ccnc(NC(=O)CC[C@@H]2C/C(=N\O)[C@@]3(C)CCC4c5cccc(F)c5CCC4C23)c1 (stereo partly drawn) [Compound 132, 3-((13S,15R,E)-4-fluoro-17-(hydroxyimino)-13-methyl-7,8,9,11,12,13,14,15,16,17-decahydro-6H-cyclopenta[a]phenanthren-15-yl)-N-(4-methoxypyridin-2-yl)propanamide]",27,6,87,,,
"Cc1cc(NC(=O)CC[C@@H]2C/C(=N\O)[C@@]3(C)CCC4c5ccc(F)cc5CCC4C23)no1 (stereo partly drawn) [Compound 134, 3-((13S,15R,E)-3-fluoro-17-(hydroxyimino)-13-methyl-7,8,9,11,12,13,14,15,16,17-decahydro-6H-cyclopenta[a]phenanthren-15-yl)-N-(5-methylisoxazol-3-yl)propanamide]",46,-3,75,,,
"C[C@]12CCC3c4cccc(F)c4CCC3C1[C@H](CCC(=O)N1CCOCC1)C/C2=N\O (stereo partly drawn) [Compound 136, 3-((13S,15R,E)-4-fluoro-17-(hydroxyimino)-13-methyl-7,8,9,11,12,13,14,15,16,17-decahydro-6H-cyclopenta[a]phenanthren-15-yl)-1-morpholinopropan-1-one]",18,-1,39,,,
"C[C@]12CCC3c4cccc(F)c4CCC3C1[C@H](CCC(=O)Nc1cc(F)ccn1)C/C2=N\O (stereo partly drawn) [Compound 140, 3-((13S,15R,E)-4-fluoro-17-(hydroxyimino)-13-methyl-7,8,9,11,12,13,14,15,16,17-decahydro-6H-cyclopenta[a]phenanthren-15-yl)-N-(4-fluoropyridin-2-yl)propanamide]",24,6,86,,,
"C[C@]12CCC3c4cccc(F)c4CCC3C1[C@H](CCC(=O)Nc1ncccc1F)C/C2=N\O (stereo partly drawn) [Compound 142, 3-((13S,15R,E)-4-fluoro-17-(hydroxyimino)-13-methyl-7,8,9,11,12,13,14,15,16,17-decahydro-6H-cyclopenta[a]phenanthren-15-yl)-N-(3-fluoropyridin-2-yl)propanamide]",34,-1,93,,,
"C[C@]12CCC3c4cccc(F)c4CCC3C1[C@H](CCC(=O)Nc1cccc(F)n1)C/C2=N\O (stereo partly drawn) [Compound 144, 3-((13S,15R,E)-4-fluoro-17-(hydroxyimino)-13-methyl-7,8,9,11,12,13,14,15,16,17-decahydro-6H-cyclopenta[a]phenanthren-15-yl)-N-(6-fluoropyridin-2-yl)propanamide]",24,10,74,,,
"C[C@]12CCC3c4cccc(F)c4CCC3C1[C@H](CCC(=O)Nc1ncc(F)cc1F)C/C2=N\O (stereo partly drawn) [Compound 146, N-(3,5-difluoropyridin-2-yl)-3-((13S,15R,E)-4-fluoro-17-(hydroxyimino)-13-methyl-7,8,9,11,12,13,14,15,16,17-decahydro-6H-cyclopenta[a]phenanthren-15-yl)propanamide]",,8,92,63,,
"C[C@]12CCC3c4cccc(F)c4CCC3C1[C@H](CCC(=O)Nc1ccc(C#N)cn1)C/C2=N\O (stereo partly drawn) [Compound 148, N-(5-cyanopyridin-2-yl)-3-((13S,15R,E)-4-fluoro-17-(hydroxyimino)-13-methyl-7,8,9,11,12,13,14,15,16,17-decahydro-6H-cyclopenta[a]phenanthren-15-yl)propanamide]",35,9,90,,,
"C[C@]12CCC3c4ccc(F)cc4CCC3C1[C@H](CCC(=O)Nc1ncccc1F)C/C2=N\O (stereo partly drawn) [Compound 150a, 3-((13S,15R,E)-3-fluoro-17-(hydroxyimino)-13-methyl-7,8,9,11,12,13,14,15,16,17-decahydro-6H-cyclopenta[a]phenanthren-15-yl)-N-(3-fluoropyridin-2-yl)propanamide]",10,0,74,,,
"C[C@]12CCC3c4ccc(F)cc4CCC3C1[C@H](CCC(=O)Nc1ncccc1F)C/C2=N/O (stereo partly drawn) [Compound 150b, 3-((13S,15R,Z)-3-fluoro-17-(hydroxyimino)-13-methyl-7,8,9,11,12,13,14,15,16,17-decahydro-6H-cyclopenta[a]phenanthren-15-yl)-N-(3-fluoropyridin-2-yl)propanamide]",3,6,30,,,
"C[C@]12CCC3c4ccc(F)cc4CCC3C1[C@H](CCC(=O)Nc1ncc(F)cc1F)C/C2=N\O (stereo partly drawn) [Compound 152, N-(3,5-difluoropyridin-2-yl)-3-((13S,15R,E)-3-fluoro-17-(hydroxyimino)-13-methyl-7,8,9,11,12,13,14,15,16,17-decahydro-6H-cyclopenta[a]phenanthren-15-yl)propanamide]",6,2,56,,,
"C[C@]12CCC3c4ccc(F)cc4CCC3C1[C@H](CCC(=O)Nc1ccc(N3CCOCC3)cn1)C/C2=N\O (stereo partly drawn) [Compound 154, 3-((13S,15R,E)-3-fluoro-17-(hydroxyimino)-13-methyl-7,8,9,11,12,13,14,15,16,17-decahydro-6H-cyclopenta[a]phenanthren-15-yl)-N-(5-morpholinopyridin-2-yl)propanamide]",38,7,83,,,
"C[C@]12CCC3c4ccc(Cl)cc4CCC3C1[C@H](CCC(=O)Nc1cc(F)ccn1)C/C2=N\O (stereo partly drawn) [Compound 156, 3-((13S,15R,E)-3-chloro-17-(hydroxyimino)-13-methyl-7,8,9,11,12,13,14,15,16,17-decahydro-6H-cyclopenta[a]phenanthren-15-yl)-N-(4-fluoropyridin-2-yl)propanamide]",3,10,47,,,
"C[C@]12CCC3c4ccccc4CCC3C1[C@H](CCC(=O)Nc1cc(F)ccn1)C/C2=N\O (stereo partly drawn) [Compound 158, N-(4-fluoropyridin-2-yl)-3-((13S,15R,E)-17-(hydroxyimino)-13-methyl-7,8,9,11,12,13,14,15,16,17-decahydro-6H-cyclopenta[a]phenanthren-15-yl)propanamide]",12,4,36,,,
"C[C@]12CCC3c4ccccc4CCC3C1[C@H](CCC(=O)Nc1ncccc1F)C/C2=N\O (stereo partly drawn) [Compound 160, N-(3-fluoropyridin-2-yl)-3-((13S,15R,E)-17-(hydroxyimino)-13-methyl-7,8,9,11,12,13,14,15,16,17-decahydro-6H-cyclopenta[a]phenanthren-15-yl)propanamide]",10,5,66,,,
"C[C@]12CCC3c4ccc(Cl)cc4CCC3C1[C@H](CCC(=O)Nc1ncccc1F)C/C2=N\O (stereo partly drawn) [Compound 162, 3-((13S,15R,E)-3-chloro-17-(hydroxyimino)-13-methyl-7,8,9,11,12,13,14,15,16,17-decahydro-6H-cyclopenta[a]phenanthren-15-yl)-N-(3-fluoropyridin-2-yl)propanamide]",7,,,,10,44
